Assay results published in PubChem BioAssay AID1918942 (Molecular Pharmacology Branch, DTP, NCI, 2023).

Test system: 743489-274-T-PDC complex spheroid viability
Experiment: Anticancer human tumor 743489-274-T-PDC patient-derived renal cell carcinoma cell line growth inhibition
Conditions: for IC50: curve of first compound; for viability, T/C: stronger effect = lower value
Summary of the method: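 Complex spheroids of tumor cells with HUVEC and human MSCs, exposed to iadademstat combined with other agents. Each agent tested in half-log steps from near clinical Cmax (else 10 microM top), DMSO ≤0.25%.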
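Also: spheroids exposed to compounds for 7 days before readout.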
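For viability, T/C in this document: 100% = DMSO vehicle control wells.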

Compound: Nc1ccccc1NC(=O)c1ccc(CNC(=O)OCc2cccnc2)cc1 + NC1CCC(NC2CC2c2ccccc2)CC1
- IC50 (second compound 0.1 µM): 932 nM
- IC50 (second compound 0.316 µM): > 3000 nM
- IC50 (second compound 1 µM): 1430 nM
- IC50 (second compound 3.16 µM): 1780 nM
- IC50 (second compound 10 µM): 1270 nM
- viability, T/C (second compound 0.1 µM, first compound 0.00949 µM): 96.2%
- viability, T/C (second compound 0.1 µM, first compound 0.03 µM): 89.4%
- viability, T/C (second compound 0.1 µM, first compound 0.0949 µM): 83.7%
- viability, T/C (second compound 0.1 µM, first compound 0.3 µM): 85.4%
- viability, T/C (second compound 0.1 µM, first compound 0.949 µM): 49.3%
- viability, T/C (second compound 0.1 µM, first compound 3 µM): 31.2%
- viability, T/C (second compound 0.316 µM, first compound 0.00949 µM): 116%
- viability, T/C (second compound 0.316 µM, first compound 0.03 µM): 92.2%
- viability, T/C (second compound 0.316 µM, first compound 0.0949 µM): 88.2%
- viability, T/C (second compound 0.316 µM, first compound 0.3 µM): 82.8%
- viability, T/C (second compound 0.316 µM, first compound 0.949 µM): 61.6%
- viability, T/C (second compound 0.316 µM, first compound 3 µM): 52.8%
- viability, T/C (second compound 1 µM, first compound 0.00949 µM): 107%
- viability, T/C (second compound 1 µM, first compound 0.03 µM): 94.8%
- viability, T/C (second compound 1 µM, first compound 0.0949 µM): 88.9%
- viability, T/C (second compound 1 µM, first compound 0.3 µM): 82.9%
- viability, T/C (second compound 1 µM, first compound 0.949 µM): 54.4%
- viability, T/C (second compound 1 µM, first compound 3 µM): 36.2%
- viability, T/C (second compound 3.16 µM, first compound 0.00949 µM): 113%
- viability, T/C (second compound 3.16 µM, first compound 0.03 µM): 97.4%
- viability, T/C (second compound 3.16 µM, first compound 0.0949 µM): 97%
- viability, T/C (second compound 3.16 µM, first compound 0.3 µM): 80.5%
- viability, T/C (second compound 3.16 µM, first compound 0.949 µM): 59.4%
- viability, T/C (second compound 3.16 µM, first compound 3 µM): 41%
- viability, T/C (second compound 10 µM, first compound 0.00949 µM): 107%
- viability, T/C (second compound 10 µM, first compound 0.03 µM): 109%
- viability, T/C (second compound 10 µM, first compound 0.0949 µM): 87.9%
- viability, T/C (second compound 10 µM, first compound 0.3 µM): 79.8%
- viability, T/C (second compound 10 µM, first compound 0.949 µM): 57.1%
- viability, T/C (second compound 10 µM, first compound 3 µM): 29.3%

Compound: O=C(c1cc(Cc2n[nH]c(=O)c3ccccc23)ccc1F)N1CCN(C(=O)C2CC2)CC1 + NC1CCC(NC2CC2c2ccccc2)CC1
- IC50 (second compound 0.1 µM): > 10000 nM
- IC50 (second compound 0.316 µM): > 10000 nM
- IC50 (second compound 1 µM): > 10000 nM
- IC50 (second compound 3.16 µM): > 10000 nM
- IC50 (second compound 10 µM): > 10000 nM
- viability, T/C (second compound 0.1 µM, first compound 0.0316 µM): 112%
- viability, T/C (second compound 0.1 µM, first compound 0.1 µM): 111%
- viability, T/C (second compound 0.1 µM, first compound 0.316 µM): 101%
- viability, T/C (second compound 0.1 µM, first compound 1 µM): 101%
- viability, T/C (second compound 0.1 µM, first compound 3.16 µM): 110%
- viability, T/C (second compound 0.1 µM, first compound 10 µM): 106%
- viability, T/C (second compound 0.316 µM, first compound 0.0316 µM): 104%
- viability, T/C (second compound 0.316 µM, first compound 0.1 µM): 106%
- viability, T/C (second compound 0.316 µM, first compound 0.316 µM): 120%
- viability, T/C (second compound 0.316 µM, first compound 1 µM): 107%
- viability, T/C (second compound 0.316 µM, first compound 3.16 µM): 124%
- viability, T/C (second compound 0.316 µM, first compound 10 µM): 100%
- viability, T/C (second compound 1 µM, first compound 0.0316 µM): 114%
- viability, T/C (second compound 1 µM, first compound 0.1 µM): 100%
- viability, T/C (second compound 1 µM, first compound 0.316 µM): 106%
- viability, T/C (second compound 1 µM, first compound 1 µM): 110%
- viability, T/C (second compound 1 µM, first compound 3.16 µM): 111%
- viability, T/C (second compound 1 µM, first compound 10 µM): 108%
- viability, T/C (second compound 3.16 µM, first compound 0.0316 µM): 117%
- viability, T/C (second compound 3.16 µM, first compound 0.1 µM): 129%
- viability, T/C (second compound 3.16 µM, first compound 0.316 µM): 120%
- viability, T/C (second compound 3.16 µM, first compound 1 µM): 98.8%
- viability, T/C (second compound 3.16 µM, first compound 3.16 µM): 100%
- viability, T/C (second compound 3.16 µM, first compound 10 µM): 113%
- viability, T/C (second compound 10 µM, first compound 0.0316 µM): 108%
- viability, T/C (second compound 10 µM, first compound 0.1 µM): 116%
- viability, T/C (second compound 10 µM, first compound 0.316 µM): 110%
- viability, T/C (second compound 10 µM, first compound 1 µM): 119%
- viability, T/C (second compound 10 µM, first compound 3.16 µM): 116%
- viability, T/C (second compound 10 µM, first compound 10 µM): 89%
